pIC50: −log10 of the molar value.
Assays:
Plasmodium falciparum [1] = assay: Antimalarial activity against chloroquine-sensitive Plasmodium falciparum 3D7 assessed as inhibition of parasite proliferation after 96 hrs by SYBR Green I-based fluorescence method; assay type: functional, organism-based; conditions: 3D7, 96 h
Plasmodium falciparum [2] = assay: Antimalarial activity against chloroquine-resistant Plasmodium falciparum W2 assessed as inhibition of parasite proliferation after 96 hrs by SYBR Green I-based fluorescence method; assay type: functional, organism-based; conditions: W2, 96 h
[3] = Resistance index, ratio of IC50 for chloroquine-resistant Plasmodium falciparum W2 to IC50 for chloroquine-sensitive Plasmodium falciparum 3D7; assay type: functional
[4] = Cytotoxicity against human WI38 cells assessed as inhibition of proliferation after 24 hrs by SRB assay; assay type: cell-based; conditions: WI-38, 24 h
[5] = Selectivity index, ratio of IC50 for human WI38 cells to IC50 for chloroquine-sensitive Plasmodium falciparum 3D7; assay type: toxicity, cell-based, WI-38; conditions: read-out: Ratio IC50
TK-10 = assay: Anticancer activity against human TK10 cells assessed as inhibition of cell growth after 24 hrs by SRB assay; assay type: functional, cell-based; conditions: TK-10, 24 h
[6] = Anticancer activity against human UACC62 cells assessed as inhibition of cell growth after 24 hrs by SRB assay; assay type: functional, cell-based; conditions: UACC-62, 24 h
MCF7 [7] = assay: Anticancer activity against human MCF7 cells assessed as inhibition of cell growth after 24 hrs by SRB assay; assay type: functional, cell-based; conditions: MCF7, 24 h
WI-38 = assay: Selectivity index, ratio of IC50 for human WI38 cells to IC50 for human TK10 cells; assay type: functional
UACC-62 = assay: Selectivity index, ratio of IC50 for human WI38 cells to IC50 for human UACC62 cells; assay type: functional
MCF7 [8] = assay: Selectivity index, ratio of IC50 for human WI38 cells to IC50 for human MCF7 cells; assay type: functional
[9] = Selectivity index, ratio of IC50 for chloroquine-resistant Plasmodium falciparum W2 to IC50 for human TK10 cells; set-up: species or system TK-10
[10] = Selectivity index, ratio of IC50 for chloroquine-resistant Plasmodium falciparum W2 to IC50 for human UACC62 cells; set-up: species or system UACC-62
[11] = Selectivity index, ratio of IC50 for chloroquine-resistant Plasmodium falciparum W2 to IC50 for human MCF7 cells

SMILES	pIC50 (Plasmodium falciparum [1])	pIC50 (Plasmodium falciparum [2])	Ratio IC50 [3]	pIC50 [4]	selectivity ratio [5]	pIC50 (TK-10)	pIC50 [6]	pIC50 (MCF7 [7])	Ratio IC50 (WI-38)	Ratio IC50 (UACC-62)	Ratio IC50 (MCF7 [8])	Ratio IC50 [9]	Ratio IC50 [10]	Ratio IC50 [11]
O=C(O)c1ccc(/C=C/C(=O)c2ccc(Cl)c(Cl)c2Cl)cc1	7.39	7.21	1.5	4.69	0.5	4.63	4.71	5.06	0.9	1	2.3	0.4	0.3	0.1
CCN(CC)CCCC(C)Nc1ccnc2cc(Cl)ccc12 (stereo not drawn) [CHLOROQUINE]	–	–	–	5.44	–	–	–	–	–	–	–	–	–	–
COc1ccc(C(=O)/C=C/c2ccc(C(=O)OC3O[C@@H]4O[C@]5(C)CC[C@H]6[C@H](C)CC[C@@H]([C@H]3C)[C@@]46OO5)cc2)c(OC)c1 (stereo partly drawn)	8.52	8.69	0.7	< 4.00	> 33100	4.66	5.36	5.99	>5	>23	>100	>10799	>2123	>500
C[C@@H]1CC[C@H]2[C@@H](C)C(OC(=O)c3ccc(/C=C/C(=O)c4ccccc4)cc3)O[C@@H]3O[C@]4(C)CC[C@@H]1[C@]32OO4 (stereo partly drawn)	8.01	7.98	1.1	< 4.00	> 10300	5.08	5.27	5.44	>12	>19	>28	>786	>505	>339
COc1ccc(C(=O)/C=C/c2ccc(C(=O)OC3O[C@@H]4O[C@]5(C)CC[C@H]6[C@H](C)CC[C@@H]([C@H]3C)[C@@]46OO5)cc2)cc1[N+](=O)[O-] (stereo partly drawn)	8.23	8.25	1	< 4.00	> 17000	4.77	5.12	5.54	>6	>13	>34	>3010	>1340	>512
COc1ccc(C(=O)/C=C/c2ccc(C(=O)O)cc2)cc1OC	7.97	7.97	1	4.17	6.2	4.72	5.10	5.05	3.6	8.6	7.6	1.7	0.7	0.8
COc1ccc(C(=O)/C=C/c2ccc(C(=O)OC3O[C@@H]4O[C@]5(C)CC[C@H]6[C@H](C)CC[C@@H]([C@H]3C)[C@@]46OO5)cc2)cc1OC (stereo partly drawn)	8.47	8.84	0.4	< 4.00	> 29800	5.22	5.28	5.47	>17	>19	>29	>4105	>3556	>2329
O=C(O)c1ccc(/C=C/C(=O)c2ccccc2)cc1	7.53	7.51	1	< 4.00	> 3.4	4.53	4.86	4.92	>3	>7	>8	>1	>0.5	>0.4
C[C@H]1[C@@H](O)O[C@@H]2O[C@@]3(C)CC[C@H]4[C@H](C)CC[C@@H]1[C@@]24OO3 [ARTENIMOL]	8.84	8.88	0.9	–	–	–	–	–	–	–	–	–	–	–
Cc1ccc(C(=O)/C=C/c2ccc(C(=O)O)cc2)o1	7.74	7.76	0.9	4.49	1.7	4.05	4.24	4.70	0.4	0.6	1.6	5.2	3.3	1.1
COc1ccc(C(=O)/C=C/c2ccc(C(=O)O)cc2)c(OC)c1	7.83	7.83	1	4.31	3.3	4.22	5.17	4.55	0.8	7.2	1.7	4	0.5	1.9
Cc1ccc(C(=O)/C=C/c2ccc(C(=O)O[C@@H]3O[C@@H]4O[C@]5(C)CC[C@H]6[C@H](C)CC[C@@H]([C@H]3C)[C@@]46OO5)cc2)o1	8.70	8.83	0.7	4.14	36500	5.44	5.48	5.47	20	21.9	21.1	2451.7	2240.1	2325.9
C[C@H]1[C@H](OC(=O)CCC(=O)O)O[C@@H]2O[C@@]3(C)CC[C@H]4[C@H](C)CC[C@@H]1[C@@]24OO3 [ARTESUNATE]	8.40	8.24	–	–	–	–	–	–	–	–	–	–	–	–
C[C@H]1[C@@H](OC(=O)c2ccc(/C=C/C(=O)c3ccc(Cl)c(Cl)c3Cl)cc2)O[C@@H]2O[C@]3(C)CC[C@H]4[C@H](C)CC[C@@H]1[C@@]24OO3	7.97	8.23	0.5	4.21	5800	4.27	4.55	4.83	1.2	2.2	4.2	9198.6	4873.3	2549.7
COc1ccc(C(=O)/C=C/c2ccc(C(=O)O)cc2)cc1[N+](=O)[O-]	7.39	7.51	0.8	4.54	0.7	4.68	4.87	5.02	1.4	2.2	3	0.7	0.4	0.3
C=C1C(=O)O[C@@H]2C3O[C@]3(C)CC/C=C(\C)CC[C@@H]12 (stereo partly drawn)	–	–	–	–	–	5.43	5.01	5.62	–	–	–	–	–	–
CC[C@H]1CN2CCc3cc(OC)c(OC)cc3[C@@H]2C[C@@H]1C[C@H]1NCCc2cc(OC)c(OC)cc21 [EMETINE]	–	–	–	7.30	–	–	–	–	–	–	–	–	–	–

Source: ChEMBL document CHEMBL3396954, “Synthesis and in vitro biological evaluation of dihydroartemisinyl-chalcone esters” (Eur J Med Chem, 2015)
